Assays:
HT-29 cells = assay: HT-29 cell proliferation assay (resazurin); format: cell-based; details: Homo sapiens, V600E mutation, read-out: Cell Proliferation Inhibition IC50, nM HT-29
Experimental: (§1) HT-29 cells (catalog #HTB-38) are obtained from the American Type Culture Collection (ATCC, Manassas, Va.). Briefly, cells are grown in McCoy's 5A supplemented with 10% characterized fetal bovine serum (Invitrogen, Carlsbad, Calif.), and 1% Penicillin/Streptomycin/L-Glutamine at 37 degrees Celsius, 5% CO2, and 95% humidity. Cells are allowed to expand until reaching 75-90% confluency at which point they are subcultured or harvested for assay use. A serial dilution of test compound is dispensed into a 384-well black clear bottom plate in triplicate. One thousand two-hundred fifty cells are added per well in 50 μL complete growth medium in the 384-well plate. Plates are incubated for 67 hours at 37 degrees Celsius, 5% CO2, and 95% humidity. At the end of the incubation period, 10 μL of a 440 μM solution of resazurin (Sigma, St. Louis, Mo.) in PBS is added to each well of the plate and plates are incubated for an additional 5 hours at 37 degrees Celsius, 5% CO2, and 95% humidity. Plates are read on a Synergy2 reader (Biotek, Winooski, Vt.) using an excitation of 540 nm and an emission of 600 nm. Data is analyzed using Prism software (Graphpad, San Diego, Calif.) to calculate IC50 values.
(§2) The A375, HT-29, and Colo-205 cells (ATCC) harbor a V600E mutation.

human B-Raf V600E = target: T1, human B-Raf V600E (Homo sapiens, UniProt P15056, V600E); assay: Enzymatic assay of B-Raf V600E kinase activity (Raf/MEK1 ATPase, coupled PK/LDH, A340); format: biochemical; details: read-out: Enzyme IC50, nM B-Raf V600E
T1 construct: B-RafV600E (residues 433-726 containing V600E mutation) containing an N-terminal purification tag is expressed and purified; made in house
Experimental: Test compounds are evaluated for their inhibitory activities against one or more of human wild type B-Raf, human wild type C-Raf, human B-Raf V600E, human B-Raf V600E+T529I or human B-Raf V600E+G468A. T529I is a threonine to isoleucine B-Raf gatekeeper mutation and G468A is a B-Raf secondary mutation at G1403C in exon 11. The enzymatic assays of B-Raf, C-Raf and B-Raf mutations evaluate a property of Raf and MEK1 complex, which in the presence of ATP, catalyzes an enhanced ATP hydrolysis (Rominger, et al, Arch. Biochem. Biophys. 2007, 464: 130-137; US Patent Publication No. 2006/0211073). The ADP formed is monitored by the well-known coupled PK/LDH (pyruvate kinase/lactate dehydrogenase) system in the form of NADH oxidation, which can be monitored and detected spectrophotometrically by absorbance at 340 nm (A340; for principal of the method see Schindler et al, Science, 2000, 289: 1938-1942). Raf activated MEK1 ATPase activity is a property shared by all forms of Raf proteins.
B-RafV600E (residues 433-726 containing V600E mutation) containing an N-terminal purification tag is expressed and purified essentially as described previously (Wan et al, Cell, 2004, 116, 855-867).
Test compounds are evaluated for their inhibitory activities against one or more of wild type B-Raf, wild type C-Raf, B-Raf V600E, B-Raf V600E+T529I and B-Raf V600E+G468A. T529I is a B-Raf gatekeeper mutation and G468A is a B-Raf secondary mutation. The enzymatic assays of B-Raf, C-Raf and B-Raf mutations evaluate a property of Raf and MEK1 complex, which in the presence of ATP, catalyzes an enhanced ATP hydrolysis (Rominger, et al, Arch. Biochem. Biophys. 2007, 464: 130-137). The ADP formed is monitored by the well-known coupled PK/LDH (pyruvate kinase/lactate dehydrogenase) system in the form of NADH oxidation, which can be monitored and detected by absorbance at 340 nm (A340; for principal of the method see Schindler et al, Science, 2000, 289: 1938-1942). Raf activated MEK1 ATPase activity is a property shared by all forms of Raf proteins. In the B-Raf wild type enzymatic assay, the reaction mixture contains 1.2 nM B-Raf, 30 nM MEK1, 1000 uM ATP, 3.5 units (per 100 ul) of PK, 5 units (per 100 ul) of LDH, 1 mM phosphoenol pyruvate (PEP), and 280 uM of NADH. In the C-Raf assay, the reaction mixture contains 0.6 nM C-Raf, 26 nM MEK1, 2000 uM ATP, and the same amount of PK, LDH, PEP and NADH as above. In the B-Raf V600E assay, the reaction mixture contains […] B-Raf V600E, 26 nM MEK1, 200 uM ATP and the same amount of PK, LDH, PEP and NADH as above. In the B-RafV600E+T529I assay, the reaction mixture contains 6.2 nM B-Raf V600E+T529I, 30 nM MEK1, 200 uM ATP and the same amount of PK, LDH, PEP and NADH as above. In the B-Raf V600E+G468A assay, the reaction mixture contains 3.5 nM B-Raf, 30 nM MEK1, 200 uM ATP and the same amount of PK, LDH, PEP and NADH as above. All assays are started by mixing the above mixture with test compound and monitoring at A340 continuously for approximately 5 hr. […] In the aforementioned assays, the enzyme constructs can be screened prior to or after cleavage of the N-terminal purification tag.

Colo205 cells = assay: Colo-205 cell proliferation assay (resazurin); format: cell-based; details: Homo sapiens; Colo-205 cells, V600E mutation; read-out: Cell Proliferation Inhibition IC50, nM Colo-205
Experimental: as §1, with “Colo205” for “HT-29”, “#HB-8307)” for “#HTB-38)”, “RPMI 1640” for “McCoy's 5A”, “Calif.), 1 mM sodium pyruvate,” for “Calif.),”, “30-60%” for “75-90%”
as §2

T1 sequence (P15056 433-726 V600E): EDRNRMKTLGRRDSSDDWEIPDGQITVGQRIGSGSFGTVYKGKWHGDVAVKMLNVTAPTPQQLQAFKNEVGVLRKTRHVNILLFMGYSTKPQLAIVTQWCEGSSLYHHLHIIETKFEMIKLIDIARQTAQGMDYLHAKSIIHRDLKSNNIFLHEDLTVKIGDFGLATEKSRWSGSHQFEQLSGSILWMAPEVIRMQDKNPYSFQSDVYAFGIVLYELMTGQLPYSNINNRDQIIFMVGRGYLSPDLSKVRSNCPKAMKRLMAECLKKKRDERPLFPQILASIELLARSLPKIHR

Row | Compound | IC50 (HT-29 cells) | IC50 (human B-Raf V600E) | IC50 (Colo205 cells)
1 | CNc1ncc2cc(-c3cc(NC(=O)NCCC(C)(C)C)c(F)cc3F)c(C)nc2n1 [Example 1, 1-(2,4-Difluoro-5-(7-methyl-2-(methylamino)pyrido[2,3-d]pyrimidin-6-yl)phenyl)-3-(3,3-dimethylbutyl)urea] | < 100 nM | < 150 nM | < 100 nM
2 | CNc1ncc2cc(-c3ccc(F)c(NC(=O)NCCC(C)(C)C)c3)c(C)nc2n1 [Example 2, 1-(3,3-Dimethylbutyl)-3-(2-fluoro-5-(7-methyl-2-(methylamino)pyrido[2,3-d]pyrimidin-6-yl)phenyl)urea] | < 100 nM | < 150 nM | < 100 nM
3 | CNc1ncc2cc(-c3cc(NC(=O)NCCC(C)(C)C#N)c(F)cc3C)c(C)nc2n1 [Example 3, 1-(3-Cyano-3-methylbutyl)-3-(2-fluoro-4-methyl-5-(7-methyl-2-(methylamino)pyrido[2,3-d]pyrimidin-6-yl)phenyl)urea] | < 100 nM | < 150 nM | < 100 nM
4 | CNc1ncc2cc(-c3cc(NC(=O)NCCC(C)(C)F)c(F)cc3C)c(C)nc2n1 [Example 4, 1-(3-Fluoro-3-methylbutyl)-3-(2-fluoro-4-methyl-5-(7-methyl-2-(methylamino)pyrido[2,3-d]pyrimidin-6-yl)phenyl)urea] | < 100 nM | < 150 nM | 100 to 1000 nM
5 | COCCNc1ncc2cc(-c3cc(NC(=O)NCCC(C)(C)C)c(F)cc3C)c(C)nc2n1 [Example 5, 1-(3,3-Dimethylbutyl)-3-(2-fluoro-5-(2-((2-methoxyethyl)amino)-7-methylpyrido[2,3-d]pyrimidin-6-yl)-4-methylphenyl)urea] | < 100 nM | < 150 nM | < 100 nM
6 | CNc1ncc2cc(-c3cc(NC(=O)NC4CC(C)(C)C4)c(F)cc3C)c(C)nc2n1 [Example 6, 1-(3,3-Dimethylcyclobutyl)-3-(2-fluoro-4-methyl-5-(7-methyl-2-(methylamino)pyrido[2,3-d]pyrimidin-6-yl)phenyl)urea] | < 100 nM | < 150 nM | < 100 nM
7 | CNc1ncc2cc(-c3cc(NC(=O)NC4CC(C)(C)C4)c(F)cc3F)c(C)nc2n1 [Example 7, 1-(2,4-Difluoro-5-(7-methyl-2-(methylamino)pyrido[2,3-d]pyrimidin-6-yl)phenyl)-3-(3,3-dimethylcyclobutyl)urea] | < 100 nM | < 150 nM | < 100 nM
8 | CNc1ncc2cc(-c3cc(NC(=O)NCC(O)C(C)(C)C)c(F)cc3C)cnc2n1 (stereo not drawn) [Example 8, 1-[2-Fluoro-4-methyl-5-(2-methylaminopyrido[2,3-d]pyrimidin-6-yl)phenyl]-3-(2-hydroxy-3,3-dimethyl-butyl)urea] | 100 to 1000 nM | < 150 nM | < 100 nM
9 | CNc1ncc2cc(-c3cc(NC(=O)NCC4CC4(C)C)c(F)cc3C)cnc2n1 (stereo not drawn) [Example 9] | 100 to 1000 nM | < 150 nM | 100 to 1000 nM
10 | Cc1cc(F)c(NC(=O)NCC(O)C(C)(C)C)cc1-c1cc2cnc(N)nc2nc1C (stereo not drawn) [Example 10] | 100 to 1000 nM | < 150 nM | 100 to 1000 nM
11 | CNc1ncc2cc(-c3cc(NC(=O)NCC(O)C(C)(C)C)c(F)cc3F)c(C)nc2n1 (stereo not drawn) [Example 11, 1-[2,4-Difluoro-5-(7-methyl-2-methylamino-pyrido[2,3-d]pyrimidin-6-yl)phenyl]-3-(2-hydroxy-3,3-dimethyl-butyl)urea] | 100 to 1000 nM | < 150 nM | 100 to 1000 nM
12 | CNc1ncc2cc(-c3cc(NC(=O)NCCC(C)(C)C#N)c(F)cc3F)c(C)nc2n1 [Example 12, 1-(3-Cyano-3-methylbutyl)-3-(2,4-difluoro-5-(7-methyl-2-(methylamino)pyrido[2,3-d]pyrimidin-6-yl)phenyl)urea] | 100 to 1000 nM | < 150 nM | 100 to 1000 nM
13 | CNc1ncc2cc(-c3ccc(F)c(NC(=O)NCCC(C)(C)C#N)c3)c(C)nc2n1 [Example 13, 1-(3-Cyano-3-methylbutyl)-3-(2-fluoro-5-(7-methyl-2-(methylamino)pyrido[2,3-d]pyrimidin-6-yl)phenyl)urea] | 100 to 1000 nM | < 150 nM | 100 to 1000 nM
14 | CNc1ncc2cc(-c3cc(NC(=O)NCCC(C)(C)OC)c(F)cc3C)c(C)nc2n1 [Example 14, 1-(2-Fluoro-4-methyl-5-(7-methyl-2-(methylamino)pyrido[2,3-d]pyrimidin-6-yl)phenyl)-3-(3-methoxy-3-methylbutyl)urea] | < 100 nM | < 150 nM | < 100 nM
15 | CNc1ncc2cc(-c3cc(NC(=O)NCC(O)C(C)(C)C)c(F)cc3C)c(C)nc2n1 (stereo not drawn) [Example 15, 1-[2-Fluoro-4-methyl-5-(7-methyl-2-methylamino-pyrido[2,3-d]pyrimidin-6-yl)phenyl]-3-(2-hydroxy-3,3-dimethyl-butyl)urea] | < 100 nM | < 150 nM | < 100 nM
16 | Cc1cc(F)c(NC(=O)NCCC(C)(C)C)cc1-c1cc2cnc(NCCO)nc2nc1C [Example 16, 1-(3,3-Dimethylbutyl)-3-[2-fluoro-5-[2-(2-hydroxyethylamino)-7-methyl-pyrido[2,3-d]pyrimidin-6-yl]-4-methyl-phenyl]urea] | < 100 nM | < 150 nM | < 100 nM
